Measured values reported in patent US8067418B2, “Tricyclic angiotensin II agonists” (Vicore Pharma AB, priority 2005, dated 2011).

Columns and labels:
duodenal mucosa = assay: Test C: duodenal mucosal alkaline secretion assay; format: in vivo; details: co-administration with title compounds of the Examples, anaesthetised rats
Text: Duodenal Mucosal Alkaline Secretion Assay
Compounds were exposed to the duodenal mucosa in barbiturate-anaesthetised rats prepared for in situ titration of duodenal mucosal alkaline secretion, according to the methodology described by Flemström et al in Am. J. Physiol. (1982) 243, G348.

AT2 receptor = target: T1, AT2 receptor (Sus scrofa, UniProt A0A4X1W622); details: read-out: dissociation constant (Kd) at AT2 receptor; Scatchard analysis, porcine myometrial membranes, [L]=0.057 nM
T1 sequence (A0A4X1W622 1-362): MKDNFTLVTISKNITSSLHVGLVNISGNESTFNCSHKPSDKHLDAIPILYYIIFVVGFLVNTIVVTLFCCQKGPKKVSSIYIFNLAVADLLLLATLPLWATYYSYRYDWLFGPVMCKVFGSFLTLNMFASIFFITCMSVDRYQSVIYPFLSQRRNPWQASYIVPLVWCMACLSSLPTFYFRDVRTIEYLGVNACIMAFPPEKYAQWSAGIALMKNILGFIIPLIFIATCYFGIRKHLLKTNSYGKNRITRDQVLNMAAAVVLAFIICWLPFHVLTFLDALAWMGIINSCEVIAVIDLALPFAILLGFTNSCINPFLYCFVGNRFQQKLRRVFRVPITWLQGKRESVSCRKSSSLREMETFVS
Method: Myometrial membranes were prepared from porcine uteri according to the method by Nielsen et al (Clin. Exp. Pharm. Phys. (1997) 24, 309). […] Samples were incubated at 25° C. for 1 h, and binding was terminated by filtration through Whatman GF/B glass-fiber filter sheets using a Brandel cell harvester. The filters were washed with 3×3 mL of Tris-HCl (pH 7.4) and transferred to tubes. The radioactivity was measured using a gamma counter. […] The binding data were best fitted with a one-site fit. All experiments were performed at least in triplicate.

Kd (AT2 receptor) [nM]	Molecule	effect of co-administration on the mucosal alkalisation stimulated by title compounds (duodenal mucosa)
	Cc1cc(Cn2cnc3c2C[C@@H](C(=O)O)N(C(=O)C(c2ccccc2)c2ccccc2)C3)ccc1N(C)C [PD123319]	blocked
0.7 ± 0.1	Asp^1-Arg^2-Val^3-Tyr^4-Ile^5-His^6-Pro^7-Phe^8 [Ang II]	
